According to paper PMC12153294 (mBio, 2025):
Several values for one entry are separate records, joined by “and”; a condition that tells them apart may be missing. Identical values can stand only once. Like-named read-outs stand apart in the source and are kept apart here.

What was measured:
SARS-CoV-2 Mac1 [1] = target: T1, SARS-CoV-2 Mac1 (Severe acute respiratory syndrome coronavirus 2, UniProt P0DTD1); assay: biochemical; conditions: inhibition of Mac1 binding to ADP-ribosylated peptide; average of 2 independent experiments; read-out: Mac1 IC50 (AlphaScreen assay)
DBT cells = assay: Cell viability, MTT assay, DBT cells; assay type: cell-based; conditions: concentrations tested
Protocol: (§1) Delayed brain tumor (DBT), L929, and Calu3 Cellular metabolic activity was assessed using a CyQUANT MTT cell proliferation assay (Thermo Fisher Scientific) by following the manufacturer’s instructions.

Mac1 = conditions: cited from earlier work
SARS-CoV-2 Mac1 [2] = target: T1, SARS-CoV-2 Mac1; assay: Differential scanning fluorimetry (DSF) thermal shift assay; assay type: binding; conditions: thermal stability of SARS-CoV-2 Mac1, increasing compound concentrations
Protocol: Thermal shift assay with DSF involved the use of LightCycler 480 Instrument (Roche Diagnostics). In total, a 15 µL mixture containing 8 × SYPRO Orange (Invitrogen) and 10 µM macrodomain protein in buffer containing 20 mM HEPES-NaOH, pH 7.5, and various concentrations of ADP-ribose or hit compounds was mixed on ice in a 384-well PCR plate (Roche). Fluorescent signals were measured from 25 to 95°C in 0.2°C/30/S steps (excitation, 470–505 nm; detection, 540–700 nm). The main measurements were carried out in triplicate. Data evaluation and Tm determination involved the use of the Roche LightCycler 480 Protein Melting Analysis software, and data fitting calculations involved the use of single-site binding curve analysis on GraphPad Prism. The thermal shift (ΔTm) was calculated by subtracting the Tm values of the DMSO from the Tm values of the compounds.

JHMV-nLuc = assay type: cell-based, murine hepatitis virus (MHV)
[3] = AlphaScreen counter screen with Bn-His6 control peptide; conditions: same figure table as Mac1 IC50 (μM), NI not defined; for IC50: Bn-His peptide control, unit inferred
Protocol: The AlphaScreen reactions were carried out in 384-well plates (Alphaplate, PerkinElmer, Waltham, MA) in a total volume of 40 µL in buffer containing 25 mM HEPES (pH 7.4), 100 mM NaCl, 0.5 mM TCEP, 0.1% BSA, and 0.05% CHAPS. All reagents were prepared as 4× stocks, and 10 µL of each reagent was added to a final volume of 40 µL. All compounds were transferred acoustically using ECHO 555 (Beckman Inc) and preincubated after mixing with purified His-tagged macrodomain protein (250 nM) for 30 min at RT, followed by the addition of a 10 amino acid biotinylated and ADP-ribosylated peptide [ARTK(Bio) QTARK (Aoa-RADP)S] (Cambridge peptides) (625 nM). After 1 h incubation at RT, streptavidin-coated donor beads (7.5 µg/mL) and nickel chelate acceptor beads (7.5 µg/mL) (PerkinElmer AlphaScreen Histidine Detection Kit) were added under low light conditions, and plates were shaken at 400 rpm for 60 min at RT protected from light. Plates were kept covered and protected from light at all steps and read on the BioTek plate reader using an AlphaScreen 680 excitation/570 emission filter set. For counter screening of the compounds, 25 nM biotinylated and hexahistidine-tagged linker peptide (Bn-His6) (PerkinElmer) was added to the compounds, followed by the addition of beads as described above. For data analysis, the percent inhibition was normalized to positive (DMSO+ labeled peptide) and negative (DMSO + macrodomain + peptide, no ADPr) controls. The IC50 values were calculated via four-parametric non-linear regression analysis, constraining bottom (=0), top (=100), & Hillslope (=1) for all curves.

[4] = LogD determination, shake-flask method; assay type: physicochemical; conditions: octanol/PBS, pH 7.4
Protocol: In total, 0.11 mg of each compound was weighed out into 2 mL centrifuge tubes; 1 mL of octanol-saturated PBS or 0.1M HCl was added to each centrifuge tube and vortexed to dissolve. Then, 0.5–1.0 mL of the PBS-saturated octanol was added to the 0.5–1.0 mL octanol-saturated PBS supernatant and vortexed. Next, 100 μL of the octanol-saturated PBS phase from each centrifuge tube was added to separate UPLC vials; 100 μL of 50:50 MP H2O:ACN was added to each vial and vortexed. The remaining octanol-saturated PBS layer was removed from the vial using a micropipette and stored in a separate vial, and 100 μL of the PBS-saturated octanol layer from each centrifuge tube was added to separate UPLC vials. In total, 100 μL of 50:50 MP H2O:ACN was added to each vial and vortexed. These procedures were repeated in triplicate and then analyzed by UPLC/UV-VIS.

L929 cells = assay: Cell viability, MTT assay, L929 cells; assay type: cell-based; conditions: concentrations tested
Protocol: as §1

JHMV-WT [5] = assay: microbe, parasite or virus in culture; assay type: cell-based, murine hepatitis virus (MHV); conditions: for Inhibition of MHV, dose-response: 50 to 200 μM, stated for both DBT and L929 cells, better activity on DBT
JHMV-WT [6] = assay: microbe, parasite or virus in culture; assay type: cell-based, murine hepatitis virus (MHV); conditions: for EC50: Murine coronavirus, read-out: EC50, % JHMV-WT inhibition on DBT cells
Calu-3 cells = assay: Cell viability, MTT assay, Calu-3 cells; assay type: cell-based
Protocol: as §1

MERS-CoV = assay type: cell-based
JHMV [7] = assay: microbe, parasite or virus in culture; assay type: cell-based, murine hepatitis virus (MHV); conditions: for Concentration at which infectious virus production was inhibited: lowest effective concentration tested
[8] = test system: SARS-CoV-2 (Wuhan strain); assay: microbe, parasite or virus in culture; assay type: cell-based; conditions: for EC50: Severe acute respiratory syndrome coronavirus 2, Calu-3, presence of IFN-γ, estimated from fold reductions, read-out: EC50 against SARS-CoV-2
JHMV [9] = assay type: cell-based, murine hepatitis virus (MHV); conditions: 150 μM
[10] = read-out: Reported EC50; cited from earlier work
[11] = Calu-3, IFN-γ pre-treated (100 U), 12.5 μM
[12] = Calu-3, IFN-γ pre-treated (100 U), 25 μM

| SMILES | IC50 (SARS-CoV-2 Mac1 [1]) | Cell viability (MTT), words (DBT cells) | DSF assay ΔTm (SARS-CoV-2 Mac1 [2]) | JHMV-nLuc replication (luciferase activity), words (JHMV-nLuc) | IC50 [3] | logD [4] | Cell viability (MTT), words (L929 cells) | EC50 (JHMV-WT [6]) | further results |
| --- | --- | --- | --- | --- | --- | --- | --- | --- | --- |
| O=C(O)C(Cc1c[nH]c2ccccc12)Nc1ncnc2[nH]ccc12 (stereo not shown) [Compound 4a] | 6.1 µM | do not impact the viability | 4.32 °C | did not affect JHMV replication | > 100 µM | -0.61 | do not impact the viability |  | Mac1 enzyme activity (Mac1): inhibited Mac1 enzyme activity |
| O=C(NCc1ccccn1)[C@H](Cc1c[nH]c2ccccc12)Nc1ncnc2[nH]ccc12 [Compound 6d] | 7.58 µM | do not impact the viability | 1.39 °C | inhibited light production from MHV replication in a dose-dependent manner | 79.2 µM |  | do not impact the viability | 77.1 µM | Inhibition of MHV, dose-response (JHMV-WT [5]): inhibited MHV in a dose-dependent manner |
| CC(C)OC(=O)[C@H](Cc1c[nH]c2ccccc12)Nc1ncnc2[nH]ccc12 [Compound 5c] | 3.66 µM | do not impact the viability | 0.76 °C | inhibited JHMV replication | 25.5 µM | 3.33 | do not impact the viability | 18.3 µM | Decrease in replication (infectious virus) (JHMV-WT [5]; 50 μM, L929 cells): ~3 logs; EC50 (JHMV-WT [5]; Murine coronavirus, L929, read-out: EC50, % JHMV-WT inhibition on L929 cells): 20 µM; Cell viability (MTT), words (Calu-3 cells): do not impact the viability; MERS-CoV replication (MERS-CoV): did not inhibit MERS-CoV replication; EC50 (JHMV [7]; Murine coronavirus, 0 to 50 μM on DBT, and 17 Cl-1 cells, read-out: EC50 for inhibition of virus production): 10 to 20 µM; Concentration at which infectious virus production was inhibited (JHMV [7]): 25 µM; Decrease in replication (infectious virus) (JHMV-WT [6]; 50 μM, DBT cells): ~ 1.5 logs; Reduction of viral titers [8, 11]: 3 fold; Reduction of viral titers [8, 12]: 7.5 fold; Reduction of viral titers ([8]; Calu-3, absence of IFN-γ, 25 μM): ~ 2 fold; EC50 [8]: ≤ 12.5 µM |
| NC(=O)[C@H](Cc1c[nH]c2ccccc12)Nc1ncnc2[nH]ccc12 [Compound 6c] | 4.04 µM |  | 3.06 °C |  | > 100 µM |  |  |  |  |
| O=C(NCc1ccccn1)[C@@H](Cc1c[nH]c2ccccc12)Nc1ncnc2[nH]ccc12 [Compound 6e] | 4.85 µM | do not impact the viability | 1.17 °C | inhibited light production from MHV replication in a dose-dependent manner | 39.6 µM |  | do not impact the viability | 53.5 µM | Inhibition of MHV, dose-response (JHMV-WT [5]): inhibited MHV in a dose-dependent manner; Cell viability (MTT), words (Calu-3 cells): do not impact the viability; MERS-CoV replication (MERS-CoV): did not inhibit MERS-CoV replication; Reduction of viral titers [8, 11]: 2.7 fold; Reduction of viral titers [8, 12]: 3.8 fold; Infectious virus production ([8]; Calu-3, absence of IFN-γ, 0 to 25 μM): did not reduce infectious virus production; EC50 [8]: ≤ 12.5 µM |
| COC(=O)[C@H](Cc1c[nH]c2ccccc12)Nc1ncnc2[nH]ccc12 [Compound 5a] | 14.1 µM | do not impact the viability | 0.97 °C | inhibited JHMV replication | > 100 µM | 1.5 | do not impact the viability |  | Concentration at which infectious virus production was inhibited (JHMV [7]): 200 µM; Fold change in PFU/mL, 5a versus DMSO (JHMV [9]; passage 1 (P1)): 3.17 X; Fold change in PFU/mL, 5a versus DMSO (JHMV [9]; passage 2 (P2)): -2.0 X; Fold change in PFU/mL, 5a versus DMSO (JHMV [9]; passage 3 (P3)): -1.1 X |
| O=C(NCc1ccncc1)[C@H](Cc1c[nH]c2ccccc12)Nc1ncnc2[nH]ccc12 [Compound 6a] | 8.37 µM |  | 1.29 °C |  | > 100 µM |  |  |  |  |
| O=C(O)C(Cc1c[nH]c2ccccc12)Nc1ncnc2[nH]ccc12 (stereo not shown) [Compound 4b] | 1.66 µM and < 2 µM |  | 4.46 °C | did not affect JHMV replication | > 100 µM |  |  |  | Bn-His IC50 (AlphaScreen counter screen) ([3]; unit not given): almost no inhibition |
| N#C[C@@]1(c2ccc3c(N)ncnn23)O[C@H](CO)[C@@H](O)[C@H]1O [GS-441524, reference compound] |  |  |  | inhibited virus replication at all concentrations |  |  |  |  | EC50 [10]: ~0.84 µM |
| O=C(NCc1ccnc(Cl)c1)[C@H](Cc1c[nH]c2ccccc12)Nc1ncnc2[nH]ccc12 [Compound 6b] | 7.57 µM |  | 1.57 °C |  | > 100 µM |  |  |  |  |
